Measured values reported in patent US20250213549A1, “COMPOSITION COMPRISING NICOTINAMIDE, NICOTINAMIDE PRECURSORS, NICOTINAMIDE METABOLITES OR COMBINATIONS THEREOF FOR PREVENTING OR REDUCING ONE OR MORE POST-ACUTE SYMPTOMS OF INFECTIOUS DISEASES” (CONARIS Research Institute AG, priority 2022, published 2025).

Tests used:
[1] = test system: COVID-19 patients; assay: Impaired sense of taste at 6 months after COVID-19, COVit-2 risk factor population; assay type: in vivo, human
Source text: (§1) For details of the trial, see Wätzig & Schreiber 2021, PCT/EP2021/083138. Patients were randomized to oral self-administration (once daily with breakfast for 28 days) of either a combination of two different nicotinamide tablets (one conventional 500-mg immediate-release nicotinamide tablet and one novel 500-mg controlled-ileocolonic-release nicotinamide [CICR-NAM]tablet, which ensures prolonged and continuous intestinal exposure to nicotinamide) or matching placebo tablets. The entire trial was conducted remotely. Patients registered online and were contacted by the study team to check their eligibility and to supply the written patient information and informed consent forms. After informed consent, patients were called for baseline data acquisition (week 0) and subsequently at week 2, week 4 and week 6. The queried baseline information included personal and demographic data, smoking status, comorbidities, concomitant administration of dietary supplements or medicaments as well as COVID-19 symptoms. […]
(§2) Approximately 6 months after infection, patients were contacted for follow-up interviews and a large battery of questionnaires and tests including antibody level measurements. […] A validated smell test (University of Pennsylvania Smell Identification Test™; Sensonics/MediSense) was performed by the patient and recorded as patient-reported outcome by a paper questionnaire. […]

[2] = test system: COVID-19 patients (PCS symptoms); assay: Generalised Anxiety Disorder 7 (GAD-7) at 6-month follow-up, COVit-2 pilot population; assay type: in vivo, human; details: pilot population n=50
Source text: (§3) In the monocentric, randomized, double-blind, prospective, placebo-controlled dietary intervention trial COVit-2 (DRKS00021214; NCT04751604) conducted at the Department of Internal Medicine I of the University Medical Center Schleswig-Holstein, Campus Kiel (Germany), outpatients with early symptomatic COVID-19 (up to 7 days after their first positive SARS-CoV-2 PCR test) in domestic quarantine were recruited from February 2021 to January 2022. […]
(§4) Approximately 6 months after infection, patients were contacted for follow-up interviews and a large battery of questionnaires and tests including antibody level measurements. […] A validated smell test (University of Pennsylvania Smell Identification Test™; Sensonics/MediSense) was performed by the patient and recorded as patient-reported outcome by a paper questionnaire. Questionnaires on olfactory and gustatory abilities (incl. the Self-reported Mini Olfactory Questionnaire, Self-MOQ, and the Questionnaire of Olfactory Disorders, QOD), respiration (Multidimensional Dyspnea Profile, MDP), mental state (Patient Health Questionnaire Depression, PHQ-8; Generalised Anxiety Disorder 7, GAD-7; Perceived Stress Scale, PSS; Brief Resilience Scale, BRS), sleep quality (Pittsburgh Sleep Quality Index, PSQI) and fatigue (Multidimensional Fatigue Inventory, MFI) were recorded as patient-reported outcomes by paper questionnaires. […]

[3] = test system: COVID-19 patients (PCS symptoms); assay: University of Pennsylvania Smell Identification Test (UPSIT) at 6-month follow-up, COVit-2 pilot population; assay type: in vivo, human; details: pilot population n=50
Source text: as §3, §4

[4] = test system: COVID-19 patients; details: week 2; of 92 patients treated with nicotinamide
[5] = test system: COVID-19 patients (PCS symptoms); assay: Patient Health Questionnaire Depression (PHQ-8) at 6-month follow-up, COVit-2 pilot population; assay type: in vivo, human; details: pilot population n=50
Source text: as §3, §4

[6] = test system: COVID-19 patients; assay: Impaired sense of taste in acute COVID-19 (patient interviews, change to baseline), COVit-2 risk factor population; assay type: in vivo, human; details: for Impaired sense of taste: Persistence (no change), frequency / Impaired sense of taste: Resolution of impairment (return to normal), frequency / Impaired sense of taste: Worsening (new impairment), frequency: number of patients
Source text: (§5) In the monocentric, randomized, double-blind, prospective, placebo-controlled dietary intervention trial COVit-2 (DRKS00021214; NCT04751604) conducted at the Department of Internal Medicine I of the University Medical Center Schleswig-Holstein, Campus Kiel (Germany), outpatients with early symptomatic COVID-19 (up to 7 days after their first positive SARS-CoV-2 PCR test) in domestic quarantine were recruited from February 2021 to January 2022. As the vaccinations against SARS-CoV-2 became available to the broader public only after several hundred patients had already been recruited into the COVit-2 trial, partly or fully vaccinated patients were excluded from participation to maintain the same inclusion population and ensure formal comparability of all patients within the trial. However, there is no reason or evidence to assume that the fundamental metabolic and microbiota-targeting effects of nicotinamide could be any different in symptomatic COVID-19 patients with or without prior vaccination.
(§6) For details of the trial, see Wätzig & Schreiber 2021, PCT/EP2021/083138. Patients were randomized to oral self-administration (once daily with breakfast for 28 days) of either a combination of two different nicotinamide tablets (one conventional 500-mg immediate-release nicotinamide tablet and one novel 500-mg controlled-ileocolonic-release nicotinamide [CICR-NAM]tablet, which ensures prolonged and continuous intestinal exposure to nicotinamide) or matching placebo tablets. The entire trial was conducted remotely. Patients registered online and were contacted by the study team to check their eligibility and to supply the written patient information and informed consent forms. After informed consent, patients were called for baseline data acquisition (week 0) and subsequently at week 2, week 4 and week 6. The queried baseline information included personal and demographic data, smoking status, comorbidities, concomitant administration of dietary supplements or medicaments as well as COVID-19 symptoms. At weeks 2, 4 and 6, regular intake of the trial supplements and concomitant supplements and medicaments, respectively, was queried as well as the current COVID-19 symptoms and disease course.
(§7) The COVit-2 trial (see Example 2) was expanded to a total of n=900 randomized patients. Of these, n=500 patients had at least one characteristic or underlying medical condition associated with an increased risk of developing severe illness from COVID-19, which was the population that had benefited most from nicotinamide supplementation in the acute phase of the disease (Wätzig & Schreiber 2021, PCT/EP2021/083138) and is hereinafter referred to as ‘risk factor population’.
(§8) In contrast, in the final analysis of n=500 patients of the risk factor population (the primary analysis population for acute COVID-19 in the COVit-2 trial), there was rather a trend favouring placebo, as evidenced by the rates of resolved, constant or newly occurring impairment shown in Table 2 to Table 5 below.
(§9) Here, the efficacy variables “impaired sense of smell” (yes/no) and “impaired sense of taste” (yes/no) from patient interviews represent the broadest and most sensitive approach, as other more specific tests or questions miss aspects of smell or taste that are not explicitly queried and thus may fail to detect significant differences. In the acute phase of the COVit-2 trial, these variables were analyzed using change to baseline, considered as resolution (symptom present at baseline but not at week x), persistence (no change compared to baseline) or worsening (symptom present at week x but not at baseline). The frequency of patients with symptom resolution, persistence or worsening for all weeks by treatment group was compared using the Cochran-Mantel-Haenszel test. Post-hoc tests for each week were calculated using the Fisher Exact test with Benjamini & Hochberg adjustment for multiple testing. The Woolfe test was performed to test for homogeneity of odds ratios across time. […]

[7] = test system: COVID-19 patients; assay: Impaired sense of smell at 6 months after COVID-19, COVit-2 risk factor population; assay type: in vivo, human
Source text: as §1, §2

[8] = test system: COVID-19 patients; details: acute phase, baseline until Week 6, mainly at week 2; interim analysis n=402; cited from earlier work
[9] = test system: COVID-19 patients (PCS symptoms); assay: Perceived Stress Scale (PSS) at 6-month follow-up, COVit-2 pilot population; assay type: in vivo, human; details: pilot population n=50
Source text: as §3, §4

[10] = test system: COVID-19 patients (PCS symptoms); assay: Cognition test T3MS at 6-month follow-up, COVit-2 pilot population; assay type: in vivo, human
Source text: as §3, §4

[11] = test system: COVID-19 patients; assay: Impaired sense of smell in acute COVID-19 (patient interviews, change to baseline), COVit-2 risk factor population; assay type: in vivo, human; details: for Impaired sense of smell: Persistence (no change), frequency / Impaired sense of smell: Resolution of impairment (return to normal), frequency / Impaired sense of smell: Worsening (new impairment), frequency: number of patients
Source text: as §5, §6, §7, §8, §9

[12] = test system: antibodies directed against the nucleocapsid (N) protein of SARS-CoV-2; assay: Anti-N antibody levels (AProof Duo Test ELISA) at 6-month follow-up, COVit-2 trial; assay type: in vivo, human
[13] = test system: COVID-19 patients (PCS); assay: PCS score at 6 months after COVID-19 in PCS risk factor population, COVit-2; details: PCS risk factor population (more than 5 predictors), N = 70
Source text: In this PCS score, 12 long-term symptom complexes (fatigue, cough/wheezing, neurological ailments, joint/muscle pain, ear-nose-throat ailments, gastrointestinal ailments, sleeping disturbance, exercise intolerance, infection signs, chemosensory deficits, chest pain and dermatological ailments) are combined with different weights.
In order to characterize a relevant subpopulation of the risk factor population as defined above that was additionally at risk for the development of PCS, baseline characteristics and symptoms of all available patients of the placebo population (n=425) were used to identify predictors for a PCS score of ≥5 at month 6 with a significance threshold of P<0.05. These predictors were the following: • medical history: chronic obstructive pulmonary disease, organ transplantation, depression, other chronic diseases, permanent intake of medication; • symptoms from the onset of COVID-19 until the trial baseline: shortness of breath, whistling/wheezing breathing, dizziness, vomiting, conjunctivitis; • at baseline: shortness of breath, whistling/wheezing breathing, dizziness, conjunctivitis, chills, muscle pain, limb pain, limitation of activity (a score of 2 in the WHO scale of COVID-19 severity developed in 2020; https://apps.who.int/iris/rest/bitstreams/1266940/retrieve, last accessed on 20 Mar. […]

[14] = test system: antibodies directed against the spike (S) protein of SARS-CoV-2; assay: Anti-S antibody levels (AProof Duo Test ELISA) at 6-month follow-up, COVit-2 trial; assay type: in vivo, human
Source text: as §5, §6
For the antibody level measurements, the time between the positive SARS-CoV-2 PCR test and the date of blood sampling for antibody analysis as well as, if applicable, the intervals between one or more subsequent vaccinations against SARS-CoV-2 and the blood sampling date were recorded. Antibody levels were measured using the AProof Duo Test (Adversis Pharma, now AP Diagnostics; Leipzig, Germany). In this test, dried blood spot samples are rehydrated and analysed by ELISAs detecting antibodies directed against the nucleocapsid (N) or spike (S) protein of SARS-CoV-2. Antibodies against the N protein are analysed to evaluate immunity generated only by SARS-CoV-2 infection. After infection with SARS-CoV-2, levels of antibodies against the S protein can represent both the consequences of infection (if no additional vaccination is performed) or of the combined humoral immunity generated by infection and subsequent vaccination(s). Between the 6-week observation period of the acute infection and the follow-up after at least 6 months, many trial participants had been vaccinated against SARS-CoV-2. Anti-N antibody levels were quantified as percent of the signal of a positive control consisting of an anti-N antibody pool from five donors collected at different time points starting 2 weeks after PCR-confirmed infection with SARS-CoV-2. This anti-N antibody pool was diluted in the negative control medium at a fixed ratio. The detection was considered negative if below 20% of the positive control, borderline for 20-30% and positive if above 30%. Anti-S antibody protein levels were quantified as binding antibody units per milliliter (BAU/mL; according to the WHO International Standard for anti-SARS-CoV-2 immunoglobulin [human][NIBSC code 20/136]). […]

[15] = 6 months after COVID-19, N = 236
[16] = acute phase, baseline until Week 6
[17] = first 50 patients per trial arm
[18] = n=50, negative if below 20% of positive control
[19] = n=50, positive if above 30% of positive control
[20] = n=50, negative if below 22 BAU/mL
[21] = n=50, positive if above 44 BAU/mL

## NC(=O)c1cccnc1 [Nicotinamide, nicotinamide]
[1]; [15]
  Impaired sense of taste, % of patients: 8.05%
[1]; after six months
  effect on frequency of impaired sense of taste: significantly reduced frequencies
[2]
  median GAD-7 score: 3
[3]
  proportion of patients with strong microsmia/hyposmia (UPSIT score <26): 2%
[4]
  shortness of breath: patients recovered: 56
[5]
  median PHQ-8 score: 4
[6]; Week 2
  Impaired sense of taste: Persistence (no change), frequency: 170
  Impaired sense of taste: Resolution of impairment (return to normal), frequency: 56
  Impaired sense of taste: Worsening (new impairment), frequency: 22
[6]; Week 4
  Impaired sense of taste: Persistence (no change), frequency: 159
  Impaired sense of taste: Resolution of impairment (return to normal), frequency: 74
  Impaired sense of taste: Worsening (new impairment), frequency: 15
[6]; Week 6
  Impaired sense of taste: Persistence (no change), frequency: 157
  Impaired sense of taste: Resolution of impairment (return to normal), frequency: 83
  Impaired sense of taste: Worsening (new impairment), frequency: 8
[6]; [16]
  effect on impaired sense of taste: no beneficial effect
[7]; [15]
  Impaired sense of smell, % of patients: 11.02%
[7]; after six months
  effect on frequency of impaired sense of smell: significantly reduced frequencies
[8]
  benefit with regard to parameters of physical performance: biologically and statistically significant benefit
[9]
  median PSS score: 24
[10]; patients with increased risk of developing severe COVID-19
  proportion of patients with mild cognitive impairment (T3MS score <89): 10%
[10]; pilot population n=50
  proportion of patients with mild cognitive impairment (T3MS score <89): 8%
[11]; Week 2
  Impaired sense of smell: Persistence (no change), frequency: 155
  Impaired sense of smell: Resolution of impairment (return to normal), frequency: 61
  Impaired sense of smell: Worsening (new impairment), frequency: 32
[11]; Week 4
  Impaired sense of smell: Persistence (no change), frequency: 150
  Impaired sense of smell: Resolution of impairment (return to normal), frequency: 78
  Impaired sense of smell: Worsening (new impairment), frequency: 20
[11]; Week 6
  Impaired sense of smell: Persistence (no change), frequency: 141
  Impaired sense of smell: Resolution of impairment (return to normal), frequency: 92
  Impaired sense of smell: Worsening (new impairment), frequency: 15
[11]; [16]
  effect on impaired sense of smell: no beneficial effect
[12]; [17]
  Anti-N antibodies, median: 10% + control
[12]; [18]
  Anti-N antibodies, % negative: 66%
  Anti-N antibodies, n negative: 33
[12]; [19]
  Anti-N antibodies, % positive: 28%
  Anti-N antibodies, n positive: 14
[13]
  PCS score, mean: 3.66
[14]; [17]
  Anti-S antibodies, median: 813 BAU/mL
[14]; [20]
  Anti-S antibodies, % negative: 2%
  Anti-S antibodies, n negative: 1
[14]; [21]
  Anti-S antibodies, % positive: 94%
  Anti-S antibodies, n positive: 47
[14]; patients with at least one characteristic or condition associated with increased risk of severe COVID-19
  Anti-S antibodies, median: 1,121 BAU/mL
